These results are taken from patent publication US20110045101A1, “FUNGICIDAL SUBSTITUTED AZOLES” (E.I. Du Pont De Nemours and Company, priority 2009, published 2011).

SMILES strings stand for the structures. Marks after values point to notes of the source that are not given here.

Common to all, as to assay type: in vivo
Holding throughout (details): 100 = 100% disease control

The test system of test [1] is Alternaria solani. Nature of the test: Test D: tomato early blight, sprayed the day before inoculation, visual disease rating. An outline of the steps: (§1)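 Test rate was 200 ppm, sprayed to run-off and equal to 500 g/ha, or 40 ppm where marked. The compound was first taken up in acetone at 3% of final volume and suspended in acetone/purified water (50/50) containing 250 ppm Trem® 014.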

For test [2], the system named is Botrytis cinerea. In words: Test C: tomato Botrytis on tomato seedlings, sprayed the day before inoculation, visual disease rating. Put shortly: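 Each compound is first taken up in acetone at 3% of the final volume and then brought to the desired ppm in a 50:50 acetone–water mix with 250 ppm surfactant (polyhydric alcohol esters). Tomato seedlings receive the suspension to run-off, normally at 200 ppm, occasionally 40 ppm.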

Test [3] relates to Erysiphe graminis f. sp. tritici. In words: Test J: wheat powdery mildew on wheat seedlings, sprayed the day before inoculation, visual disease rating. Put shortly: as §1
In test [4] the test system is Septoria tritici. In words: Test G: wheat leaf blotch on wheat seedlings, sprayed the day before inoculation, visual disease rating. An outline of the steps: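 Wheat seedlings were sprayed to run-off with test suspension (acetone/water plus surfactant), generally 200 ppm (≈500 g/ha), or 40 ppm where marked. Septoria tritici spores were inoculated the next day; plants were held 48 h at 24°C in saturated atmosphere, then 19 days at 20°C before visual disease rating.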

Test [5] concerns Septoria nodorum. Nature of the test: Test F: wheat glume blotch on wheat seedlings, sprayed the day before inoculation, visual disease rating. An outline of the steps: as §1
Test [6] concerns Puccinia recondita f. sp. tritici. In words: Test H: wheat leaf rust, test suspension sprayed after inoculation of wheat seedlings, visual disease rating. An outline of the steps: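 Wheat seedlings inoculated with P. recondita spores, held 24 h saturated at 20 °C, then 2 days in growth chamber at 20 °C; compound suspension (acetone/water with Trem 014) sprayed to run-off afterwards. Rated visually; 200 ppm (≈500 g/ha) unless marked *, which denotes 40 ppm.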

The test system is the same in test [7]. Nature of the test: Test I: wheat leaf rust on wheat seedlings, sprayed the day before inoculation, visual disease rating. Put shortly: as §1
The mark [8] stands for this setting: 200 ppm, 0 = no control relative to controls.

`Fc1ccc(-n2c(Cl)nc(Br)c2-c2ccc(Cl)cc2)c(Cl)c1` [compound 324]: the “Test D disease control rating” value in test [1] (setting [8]) stood at 99%. Also, in test [2] (setting [8]), the “Test C disease control rating” value is recorded as 99%. The “Test J disease control rating” value in test [3] (setting [8]) is 99%. The “Test G disease control rating” value in test [4] (setting [8]) amounted to 93%. Also, the “Test F disease control rating” value in test [5] (setting [8]) is recorded as 82%. Also, the “Test H disease control rating” value in test [6] (setting [8]) was 9%. In addition, the “Test I disease control rating” value in test [7] (setting [8]) is reported as 97%.
For the compound `COc1cc(F)c(-c2c(Cl)nc(Cl)n2-c2ccc(Cl)nc2OC)c(F)c1` [compound 514], the “Test D disease control rating” value in test [1] (setting [8]) turned out to be 99%. In addition, the “Test C disease control rating” value in test [2] (setting [8]) turned out to be 99%. In test [3] (setting [8]), the “Test J disease control rating” value is 99%. The “Test G disease control rating” value in test [4] (setting [8]) stood at 100%. Also, the “Test F disease control rating” value in test [5] (setting [8]) is reported as 73%. Further, the “Test H disease control rating” value in test [6] (setting [8]) was determined as 0%. For the same compound, in test [7] (setting [8]), the “Test I disease control rating” value is recorded as 93%.
With `COc1ccc(F)c(-c2c(Br)nc(Br)n2-c2ccc(C)cc2)c1F` [compound 511], the “Test D disease control rating” value in test [1] (setting [8]) came out at 99%. The “Test C disease control rating” value in test [2] (setting [8]) is reported as 99%. Further, the “Test J disease control rating” value in test [3] (setting [8]) amounted to 100%. Further, in test [4] (setting [8]), the “Test G disease control rating” value was 99%. The “Test F disease control rating” value in test [5] (setting [8]) was determined as 99%. For the same compound, the “Test H disease control rating” value in test [6] (setting [8]) is recorded as 0%. Moreover, in test [7] (setting [8]), the “Test I disease control rating” value turned out to be 99%.
For `COc1cc(OC)cc(-n2c(Cc3ccc(F)cc3F)cnc2C)c1` [compound 476], the “Test D disease control rating” value in test [1] (setting [8]) is 0%. The “Test C disease control rating” value in test [2] (setting [8]) stood at 0%. The “Test J disease control rating” value in test [3] (setting [8]) came out at 47%. Further, in test [4] (setting [8]), the “Test G disease control rating” value came to 59%. The “Test F disease control rating” value in test [5] (setting [8]) is reported as 0%. In addition, in test [6] (setting [8]), the “Test H disease control rating” value is on record as 0%. Besides, in test [7] (setting [8]), the “Test I disease control rating” value is 78%.
With `COc1cc(F)c(-n2c(Cl)nc(CCl)c2-c2cccc(F)c2)c(F)c1` [compound 712], the “Test D disease control rating” value in test [1] (40 ppm (marked *)) is on record as 57* %. In addition, in test [2] (40 ppm (marked *)), the “Test C disease control rating” value is 100* %. Also, the “Test J disease control rating” value in test [3] (40 ppm (marked *)) is on record as 61* %. Moreover, in test [4] (setting [8]), the “Test G disease control rating” value is 95%. Also, in test [5] (40 ppm (marked *)), the “Test F disease control rating” value is 0* %. Also, the “Test H disease control rating” value in test [6] (40 ppm (marked *)) is reported as 7* %. The “Test I disease control rating” value in test [7] (40 ppm (marked *)) is 86* %.
`Cc1ccc(-n2c(Cl)nc(Br)c2-c2c(F)ccc(F)c2Cl)cc1` [compound 464]: the “Test D disease control rating” value in test [1] (40 ppm (marked *)) is on record as 89* %. Further, the “Test C disease control rating” value in test [2] (40 ppm (marked *)) is given as 99* %. Also, the “Test J disease control rating” value in test [3] (40 ppm (marked *)) is reported as 100* %. For the same compound, in test [4] (40 ppm (marked *)), the “Test G disease control rating” value is on record as 72* %. Besides, the “Test F disease control rating” value in test [5] (40 ppm (marked *)) is 0* %. Besides, the “Test H disease control rating” value in test [6] (40 ppm (marked *)) was 0* %. Besides, in test [7] (40 ppm (marked *)), the “Test I disease control rating” value is recorded as 99* %.
Consider `COc1cc(F)c(-c2c(Cl)ncn2-c2cccc(OC(F)F)c2)c(F)c1` [compound 556], for which, in test [1] (setting [8]), the “Test D disease control rating” value is on record as 99%. Further, the “Test C disease control rating” value in test [2] (setting [8]) was 100%. Moreover, the “Test J disease control rating” value in test [3] (setting [8]) is reported as 97%. Also, the “Test G disease control rating” value in test [4] (setting [8]) is 95%. The “Test F disease control rating” value in test [5] (setting [8]) is given as 98%. Moreover, in test [6] (setting [8]), the “Test H disease control rating” value was determined as 87%. In addition, the “Test I disease control rating” value in test [7] (setting [8]) came to 100%.
For `Fc1ccc(-n2c(Cl)nc(Br)c2-c2ccc(Cl)c(F)c2)c(Cl)c1` [compound 326], the “Test D disease control rating” value in test [1] (setting [8]) is reported as 100%. The “Test C disease control rating” value in test [2] (setting [8]) is on record as 100%. Besides, the “Test J disease control rating” value in test [3] (setting [8]) is 100%. Besides, the “Test G disease control rating” value in test [4] (setting [8]) was determined as 96%. In addition, the “Test F disease control rating” value in test [5] (setting [8]) came out at 51%. Moreover, in test [6] (setting [8]), the “Test H disease control rating” value was determined as 67%. In test [7] (setting [8]), the “Test I disease control rating” value is 98%.
For `COc1ccc(-n2c(Cl)nc(C)c2-c2c(F)cccc2F)cn1` [compound 718], the “Test D disease control rating” value in test [1] (setting [8]) is 100%. The “Test C disease control rating” value in test [2] (setting [8]) is recorded as 100%. Moreover, the “Test J disease control rating” value in test [3] (setting [8]) is 100%. Further, the “Test G disease control rating” value in test [4] (setting [8]) was determined as 100%. In addition, in test [5] (setting [8]), the “Test F disease control rating” value is on record as 97%. Further, the “Test H disease control rating” value in test [6] (setting [8]) was determined as 99%. For the same compound, the “Test I disease control rating” value in test [7] (setting [8]) is recorded as 100%.
